The star is where a group is joined. Myristoyl = CCCCCCCCCCCCCC(=O)*

Assay [1] in a line: Liposome-peptide integral complex: pH-triggered calcein release and stability. As to conditions: after Sepharose CL-6B column, FIG. 8A. The text has this:
A fatty acid incorporated on the N-terminal of peptide anchors the sequence with liposomes to form integral complex which can then be used as single stable reagent that can be triggered to release the contents-of the liposomoes when the pH is ideal (i.e physiological 7.4) or acidic (e.g 6.2). In the first instance we prepared the liposome-peptide complex at a predetermined ratio of lipid-to peptide (30:1) in pH 8 buffer using peptide 10. […] The complex between liposomes and peptide was formed by adding peptide to […] of 10 mM NaP containing 140 mM NaCl, 1 mM EDTA, 5 mM Hepes pH 8 buffer, containing 100 μl of calcein encapsulating liposomes. The mixture was incubated for 20 mins to form the complex prior to use. In order to ascertain that the lysis is occurring due to the formation of complex and not as the action of the peptide per se it was essential to purify the liposome-peptide complex. The peptide to lipid ratio in this complex is 1:30. The complex was applied to a Sepharose CL-6B column. Fractions corresponding to liposomes were collected as clearly visible to the eye. Aliquots of these fractions were then tested for lytic activity at acidic and physiological pH values. The key aim was to establish that the peptide is liposome associated and would thus be eluted with liposome fraction in the void volume. We used 100 μl complex (a column purified fraction) and followed the release of Calcein at two different pH values.
FIG. 8A. […] Upper curve pH 5.8. Lower curve pH 7.4.
2 ml buffer (10 mM Na phosphate, 140 mM NaCl, 1 mM EDTA, 5 mM HEPES)+50 μl purified complex. Lipsomes used were 50 nm extruded. Curves top to bottom are pH 6.2, 6.4, 6.7, 7.0, 7.4
Complex 20 μl liposomes+60 μl pH 8 buffer+20 μl peptide (0.1 mg/ml) prepared and used within 2 minutes. 10 μl was added to each of the cuvettes containing 2 ml buffers. Top curve pH 6.2 (triton was added towards the end indicated by sharp dip in fluorescence to check full lysis), the lower curve is at pH 7.4. Samples measured simultaneously.
5 μL of complex in 2 ml of buffer tested 20 minutes after preparation. Upper curve pH 6.2, Lower curve pH 7.4.
5 μL of complex in 2 ml of buffer tested 5 hrs after preparation. Upper curve pH 6.2 and lower curve pH 7.4.
5 μL of complex in 2 ml of buffer tested 24 hrs after preparation curve pH 6.2, Lower curve pH 7.4.

A short description of assay [2]: Detection of VTB epitope and VTB subunit by pH arming liposomal assay.
Assay [3] is described as follows: Cloaking of peptide activity with pH and DNA binding, calcein liposome lysis. The method, then: Calcein liposomes containing (5 μM lipid) were added to 2 ml phosphate buffered saline containing the peptide (0.4 μM) and the fluorescence recorded. This was carried out at pH values of 6.6 and 7.4. The fluorescence intensity indicative of leakage after five minutes was expressed as a % of lysis obtained with 10 μl of 10% Triton-X100. the latter taken to represent 100% lysis. The experiment was repeated whereby the peptide was pre-condensed with calf thymus DNA (Sigma) at charge ratio to give minimum lysis at pH 7.4. […] Thus the DNA condensate of the peptide would require both the de-condensation and slightly acidic conditions to cause lysis. Cloaking of peptides with DNA binding and pH has obvious advantages when delivering genes via the endosome route where low pH is encountered. A combination of highly anionic region (towards the N terminal end of peptide 13 table 1 residues LEAALAEALEAL) and highly cationic region (the c terminal end of peptide 13 table 1, residues RRRRQQ,) within the same polypeptide sequence is critical to this fuction.
To assess condensation of DNA to peptide and its effect on cytolytic activity, assays were performed at several different pH values and at different peptide to DNA ratios. […] The peptide or complexes have a property of retaining high basic character on one end which is essential for DNA binding while retaining highly acidic character on the other half of the molecule which is critical for pH switching.

The nature of assay [4]: Activation of phosphorylated peptide by alkaline phosphatase, calcein liposome lysis. The method, then: Alkaline phosphatase (bovine intestinal mucosa) obtained from Sigma was used for dephosphorylation of peptide at the serine phosphate. A 10 μl of Peptide solution (0.01 mg/ml) was added to 2 ml of 10 mM HEPES buffer at pH 6.8 and 10 units of alkaline phosphatase added. After allowing 10-minute incubation for dephosphorylation calcein liposomes (5 μM lipid) were added and fluorescence intensity recorded using wavelengths of 490 nm for excitation and 520 nm for emission. Control experiment was conducted in the absence of alkaline phosphates. […] Thus the enzyme treatment yielded the dephosphorylated peptide resulting in activation of the peptide under mildly acidic conditions 3 μl of 0.1 mg/ml of peptide 12 (table 1) was incubated for 10 minutes with alkaline phosphatase in 20 μl 10 mM Tris-HCL pH 8 buffer. This was then added (see arrow on FIG. 14B) to 2 ml PBS pH 6.6 buffer containing 3 μl of calcein liposomes (3 mg/ml lipid concentration). Fluorescence was recorded as a function of time with excitation and emission wavelengths of 490 nm and 520 nm respectively. A similar experiment was carried out in the absence of alkaline phosphatase.

Regarding “Myr-WBALAEALAEALAEHLAKALAEALEALAA-Amide [peptide 10]”, the “Calcein release from purified liposome-peptide complex at pH 5.8” value in assay [1] (peptide to lipid 1:30, pH 5.8) was “acid triggered release”. In assay [1] (peptide to lipid 1:30, pH 7.4), the “Calcein release from purified liposome-peptide complex at pH 7.4” value was “little or no release”.
“Myr-EAALAEALAEALAEGK(ELFTNR)PALISWRRRLQQ-amide [peptide 6]”: in assay [2] (VTB subunit competing for anti-epitope antibody, pH 6.8, FIG. 7), the “detection of VTB subunit by release of calcein” value is “could also be detected”. Also, the “pH sensitivity of cytolytic activity” value in assay [2] (analogous to parent Peptide 2) was “pH sensitive”. Also, the “detection of VTB epitope by release of calcein” value in assay [2] (free epitope (ELFTNR) competing for 6 μg anti-epitope antibody, FIG. 6) is “could be detected”.
In the case of “Myr-LEAALAEALEALAAGKPALISWIRRRRQQ-Amide (Myristoyl-LEAALAEALEALAAGKPALISWIRRRRQQ-NH2; SMILES CCCCCCCCCCCCCC(=O)N[C@@H](CC(C)C)C(=O)N[C@@H](CCC(=O)O)C(=O)N[C@@H](C)C(=O)N[C@@H](C)C(=O)N[C@@H](CC(C)C)C(=O)N[C@@H](C)C(=O)N[C@@H](CCC(=O)O)C(=O)N[C@@H](C)C(=O)N[C@@H](CC(C)C)C(=O)N[C@@H](CCC(=O)O)C(=O)N[C@@H](C)C(=O)N[C@@H](CC(C)C)C(=O)N[C@@H](C)C(=O)N[C@@H](C)C(=O)NCC(=O)N[C@@H](CCCCN)C(=O)N1CCC[C@H]1C(=O)N[C@@H](C)C(=O)N[C@@H](CC(C)C)C(=O)N[C@H](C(=O)N[C@@H](CO)C(=O)N[C@@H](Cc1c[nH]c2ccccc12)C(=O)N[C@H](C(=O)N[C@@H](CCCNC(=N)N)C(=O)N[C@@H](CCCNC(=N)N)C(=O)N[C@@H](CCCNC(=N)N)C(=O)N[C@@H](CCCNC(=N)N)C(=O)N[C@@H](CCC(N)=O)C(=O)N[C@@H](CCC(N)=O)C(N)=O)[C@@H](C)CC)[C@@H](C)CC) [Peptide 13]”, in assay [3] (0.4 μM peptide, pH 6.6 vs 7.4, five minutes, FIG. 15), the “lysis of calcein liposomes when no DNA is present” value was “activated by acidic pH”. Besides, the “cytolytic activity with DNA at acidic pH” value in assay [3] (DNA substantially dissociated) was “activity is regained”. In addition, the “effect of DNA binding on peptide activity” value in assay [3] (pre-condensed with calf thymus DNA, FIG. 15) was “substantial inactivation”. Moreover, the “cytolytic activity bound to DNA at physiological pH” value in assay [3] (several peptide to DNA ratios) was “inactive”.
“Myr-WEA ALA EAL AEA S(Phospho)AE HLA RAL AEA LEA LAA-Amide [peptide 12]”: the “dye release in the presence of alkaline phosphatase, pH 6.8” value in assay [4] (10 units alkaline phosphatase, 10 mM HEPES pH 6.8, FIG. 14A) is reported as “substantial dye release”. Also, in assay [4] (alkaline phosphatase pre-incubation pH 8, then PBS pH 6.6, FIG. 14B curve 1), the “dye release, enzyme treated peptide, pH 6.6” value was “release of the dye”. The “dye release, non-treated peptide, pH 6.6” value in assay [4] (no alkaline phosphatase, PBS pH 6.6, FIG. 14B curve 2) is “no or little rate increase”. Further, the “dye release in the absence of enzyme, pH 6.8” value in assay [4] (no alkaline phosphatase, pH 6.8, FIG. 14A) is listed as “low release”.
